Bounds are passed on as bounds.

These results are taken from patent US20140378422A1, “Combination of a RTK inhibitor with an anti-estrogen and use thereof for the treatment of cancer” (NOVARTIS AG, priority 2012, published 2014).

The test system of assay [1] is metastatic breast cancer. The experiment in a line: Clinical trial of Compound A as single agent in metastatic breast cancer patients. The assay is classed as in vivo, human. The settings on record: preliminary results.
Assay [2] relates to CAMA-1 cell line. Put plainly: CAMA-1 cell proliferation, CellTiter-Glo Luminescent Cell Viability Assay, dose matrix analysed with Chalice Analyzer. Format: cell-based. The following applies: standard media, 72 hrs, FIG. 2A. For orientation: ATP-based viability assays read luminescence as a measure of living cells.
Description: Cell lines were grown at 37° C. and 5% CO2.
24 hours following plating, 20 ul of each compound dilution series was transferred to plates containing the cells, resulting in compound concentration ranges from 50 nM to 4000 nM by 3-fold dilutions and a final DMSO concentration of 0.16%. The total volume in each well was 100 ul and each dose matrix was tested in triplicate on separate assay plates.
The average and standard deviation percent inhibition relative to DMSO treated control for triplicate compound-treated wells at each concentration of compounds was determined and up-loaded to Chalice Analyzer Database.

Compound `CN1CCN(c2ccc3nc(-c4c(N)c5c(F)cccc5[nH]c4=O)[nH]c3c2)CC1` [Compound A, 4-amino-5-fluoro-3-[5-(4-methylpiperazin-1-yl)-1H-benzimidazol-2-yl]quinolin-2(1H)-one] registered an unconfirmed partial responses in assay [1] (patients with FGF amplified disease (FGFR1 and/or FGFR2 and/or FGF3 amplification)) of 3. In addition, the “patients with stable disease for greater than 24 weeks and/or a partial response that was not confirmed at four weeks” value in assay [1] (patients with FGF amplified disease) was “five”. Moreover, the “patients with stable disease greater than 24 weeks” value in assay [1] (patients with FGF-pathway non-amplified disease) is 3.

As for `C[C@]12CC[C@@H]3c4ccc(O)cc4C[C@@H](CCCCCCCCC[S+]([O-])CCCC(F)(F)C(F)(F)F)[C@H]3[C@@H]1CC[C@@H]2O` (stereo partly drawn) [Fulvestrant, (7α,17β)-7-[9-[(4,4,5,5,5-Pentafluoropentyl)sulfinyl]nonyl]estra-1,3,5(10)-triene-3,17-diol], the “concentrations with a modest effect on proliferation as a single agent” value in assay [2] is not below 0.049 µM.
